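Assay format: 96-well plates, 48-hour exposure. TGI denotes the concentration required for complete inhibition of growth.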
Key:
Experiment in all cases: NCI-60 cell line screen, 48 h
HOP-62 NSCLC = system: HOP-62 NSCLC
OVCAR-4 ovarian = system: OVCAR-4 ovarian
SF-268 CNS = system: SF-268 CNS
SK-OV-3 ovarian = system: SK-OV-3 ovarian
CAKI-1 renal = system: CAKI-1 renal
MOLT-4 leukemia = system: MOLT-4 leukemia
NCI-H23 lung = system: NCI-H23 lung
RPMI-8226 leukemia = system: RPMI-8226 leukemia
HOP-92 NSCLC = system: HOP-92 NSCLC
SF-539 CNS = system: SF-539 CNS
NCI-H226 lung = system: NCI-H226 lung
HS 578T breast = system: HS 578T breast
ACHN renal = system: ACHN renal
SN12C renal = system: SN12C renal
MCF7 breast = system: MCF7 breast
HCT-15 colon = system: HCT-15 colon
OVCAR-5 ovarian = system: OVCAR-5 ovarian
786-0 renal = system: 786-0 renal
HCC-2998 colon = system: HCC-2998 colon
OVCAR-3 ovarian = system: OVCAR-3 ovarian
NCI/ADR-RES ovarian = system: NCI/ADR-RES ovarian
EKVX NSCLC = system: EKVX NSCLC
SNB-75 CNS = system: SNB-75 CNS
A549 NSCLC = system: A549 NSCLC
COLO 205 colon = system: COLO 205 colon
U251 CNS = system: U251 CNS
BT-549 breast = system: BT-549 breast
NCI-H460 lung = system: NCI-H460 lung
SNB-19 CNS = system: SNB-19 CNS
NCI-H522 lung = system: NCI-H522 lung
DU-145 prostate = system: DU-145 prostate
SK-MEL-2 melanoma = system: SK-MEL-2 melanoma
SK-MEL-5 melanoma = system: SK-MEL-5 melanoma
MALME-3M melanoma = system: MALME-3M melanoma
M14 melanoma = system: M14 melanoma
PC-3 prostate = system: PC-3 prostate
UACC-257 melanoma = system: UACC-257 melanoma
HL-60(TB) leukemia = system: HL-60(TB) leukemia
K-562 leukemia = system: K-562 leukemia
CCRF-CEM leukemia = system: CCRF-CEM leukemia
HCT-116 colon = system: HCT-116 colon
SW-620 colon = system: SW-620 colon
T-47D breast = system: T-47D breast
SF-295 CNS = system: SF-295 CNS
UO-31 renal = system: UO-31 renal
OVCAR-8 ovarian = system: OVCAR-8 ovarian
IGROV1 ovarian = system: IGROV1 ovarian
MDA-MB-435 = system: MDA-MB-435
SK-MEL-28 melanoma = system: SK-MEL-28 melanoma
A498 renal = system: A498 renal
RXF 393 renal = system: RXF 393 renal
LOX IMVI melanoma = system: LOX IMVI melanoma
MDA-N = system: MDA-N
KM12 colon = system: KM12 colon
SR leukemia = system: SR leukemia
UACC-62 melanoma = system: UACC-62 melanoma
TK-10 renal = system: TK-10 renal
HT29 colon = system: HT29 colon
MDA-MB-231 breast = system: MDA-MB-231 breast

O=C1CC(Cl)c2c1csc2Br (configuration not stated)
TGI (HOP-62 NSCLC): 28.7 µM | TGI (OVCAR-4 ovarian): 63.6 µM | TGI (SF-268 CNS): 31.4 µM | TGI (SK-OV-3 ovarian): 32.6 µM | TGI (CAKI-1 renal): 17.7 µM | TGI (MOLT-4 leukemia): 22.2 µM | TGI (NCI-H23 lung): 28.9 µM | TGI (RPMI-8226 leukemia): 3.25 µM | TGI (HOP-92 NSCLC): 41.8 µM | TGI (SF-539 CNS): 6.46 µM | TGI (NCI-H226 lung): 76.9 µM | TGI (HS 578T breast): 47.5 µM | TGI (ACHN renal): 29 µM | TGI (SN12C renal): 35.7 µM | TGI (MCF7 breast): 19.6 µM | TGI (HCT-15 colon): 25.8 µM | TGI (OVCAR-5 ovarian): 33.5 µM | TGI (786-0 renal): 25.9 µM | TGI (HCC-2998 colon): 31.2 µM | TGI (OVCAR-3 ovarian): 39.5 µM | TGI (NCI/ADR-RES ovarian): 47 µM | TGI (EKVX NSCLC): 43.2 µM | TGI (SNB-75 CNS): 35.4 µM | TGI (A549 NSCLC): 41.4 µM | TGI (COLO 205 colon): 28.5 µM | TGI (U251 CNS): 30.4 µM | TGI (BT-549 breast): 34 µM | TGI (NCI-H460 lung): 42.5 µM | TGI (SNB-19 CNS): 32.9 µM | TGI (NCI-H522 lung): 11.3 µM | TGI (DU-145 prostate): > 100 µM | TGI (SK-MEL-2 melanoma): 29.8 µM | TGI (SK-MEL-5 melanoma): 30.6 µM | TGI (MALME-3M melanoma): 30.1 µM | TGI (M14 melanoma): 27.3 µM | TGI (PC-3 prostate): 25.4 µM | TGI (UACC-257 melanoma): 32.1 µM | TGI (HL-60(TB) leukemia): 52.4 µM | TGI (K-562 leukemia): 47 µM | TGI (CCRF-CEM leukemia): 7.78 µM | TGI (HCT-116 colon): 33.1 µM | TGI (SW-620 colon): 12.6 µM | TGI (T-47D breast): 70.1 µM | TGI (SF-295 CNS): 50.2 µM | TGI (UO-31 renal): 23.8 µM | TGI (OVCAR-8 ovarian): 29.8 µM | TGI (IGROV1 ovarian): 30.8 µM | TGI (MDA-MB-435): 29.1 µM | TGI (SK-MEL-28 melanoma): 32.1 µM | TGI (A498 renal): 53.8 µM | TGI (RXF 393 renal): 34.7 µM | TGI (LOX IMVI melanoma): 30.5 µM | TGI (MDA-N): 42.2 µM | TGI (KM12 colon): 28.5 µM | TGI (SR leukemia): 22.3 µM | TGI (UACC-62 melanoma): 29.5 µM | TGI (TK-10 renal): 29.5 µM | TGI (HT29 colon): 43.9 µM

O=c1cc(NNc2ccc(F)cc2)[nH]c(=O)[nH]1
TGI (HOP-62 NSCLC): 32.7 µM | TGI (OVCAR-4 ovarian): 21.4 µM | TGI (SF-268 CNS): 53.8 µM | TGI (SK-OV-3 ovarian): > 100 µM | TGI (MOLT-4 leukemia): 59.3 µM | TGI (NCI-H23 lung): 82.7 µM | TGI (MDA-MB-231 breast): 33.4 µM | TGI (RPMI-8226 leukemia): > 100 µM | TGI (SF-539 CNS): 44.5 µM | TGI (NCI-H226 lung): 57.4 µM | TGI (HS 578T breast): 90.8 µM | TGI (ACHN renal): 31.7 µM | TGI (SN12C renal): 37.7 µM | TGI (HCT-15 colon): 31.7 µM | TGI (OVCAR-5 ovarian): 33.3 µM | TGI (786-0 renal): 25.5 µM | TGI (HCC-2998 colon): 51.3 µM | TGI (OVCAR-3 ovarian): 32.7 µM | TGI (NCI/ADR-RES ovarian): 88.7 µM | TGI (EKVX NSCLC): 32.2 µM | TGI (SNB-75 CNS): 31.1 µM | TGI (A549 NSCLC): 34.7 µM | TGI (COLO 205 colon): 30.9 µM | TGI (U251 CNS): 40.8 µM | TGI (BT-549 breast): 26.7 µM | TGI (NCI-H460 lung): 38.7 µM | TGI (SNB-19 CNS): 37.1 µM | TGI (DU-145 prostate): > 100 µM | TGI (SK-MEL-2 melanoma): 45.6 µM | TGI (SK-MEL-5 melanoma): 67.1 µM | TGI (MALME-3M melanoma): 43.8 µM | TGI (M14 melanoma): 21 µM | TGI (PC-3 prostate): 32.5 µM | TGI (UACC-257 melanoma): > 100 µM | TGI (HL-60(TB) leukemia): > 100 µM | TGI (K-562 leukemia): 81.2 µM | TGI (CCRF-CEM leukemia): 74.7 µM | TGI (HCT-116 colon): 34.1 µM | TGI (SW-620 colon): 33.1 µM | TGI (T-47D breast): 71 µM | TGI (SF-295 CNS): > 100 µM | TGI (UO-31 renal): 31.8 µM | TGI (OVCAR-8 ovarian): 53.3 µM | TGI (IGROV1 ovarian): 30.2 µM | TGI (SK-MEL-28 melanoma): 33.3 µM | TGI (A498 renal): > 100 µM | TGI (RXF 393 renal): 34.3 µM | TGI (LOX IMVI melanoma): > 100 µM | TGI (MDA-N): 30.8 µM | TGI (KM12 colon): 24 µM | TGI (SR leukemia): > 100 µM | TGI (UACC-62 melanoma): 33.5 µM | TGI (TK-10 renal): 36.8 µM | TGI (HT29 colon): 33.9 µM
